Assay results reported in patent US11396510B2, “GABAA receptor ligand” (Saniona A/S, priority 2018, dated 2022).
Entries after “also recorded” stand apart in the source; their conditions may differ.

Columns and labels:
[1] = system: male Sprague Dawley (SD) rats; experiment: Exploratory locomotor activity in male SD rats; format: in vivo, rat; details: up to 30 mg/kg per oral, 120 minutes prior, recorded 30 minutes
Experimental: FIG. 4. […] The activity of the rats was automatically registered for 30 minutes (TSE MoTil, Germany).
Male SD rats (180-250 grams, NTac:SD, Taconic, Denmark)
2 hrs post dosing, the rats were placed individually into novel standard home cages with reduced sawdust bedding. The cages were placed in frames equipped with photocells and beams allowing for automatic recording of locomotor behaviour (TSE MoTil, Germany). The exploratory locomotor activity was recorded for 30 minutes.

[2] = target: T1, α5β2γ2 GABAA receptors expressed in Xenopus laevis oocytes (Homo sapiens, UniProt P18507+P31644); experiment: Oocyte two-electrode voltage clamp electrophysiology, α5β2γ2; format: cell-based; details: GABA at EC10-20; normalized to maximal effective concentration of diazepam
T1 construct: expressed in transfected cells; host or cells: Xenopus laevis oocytes injected with cRNA
T1 sequence (P31644 32-462): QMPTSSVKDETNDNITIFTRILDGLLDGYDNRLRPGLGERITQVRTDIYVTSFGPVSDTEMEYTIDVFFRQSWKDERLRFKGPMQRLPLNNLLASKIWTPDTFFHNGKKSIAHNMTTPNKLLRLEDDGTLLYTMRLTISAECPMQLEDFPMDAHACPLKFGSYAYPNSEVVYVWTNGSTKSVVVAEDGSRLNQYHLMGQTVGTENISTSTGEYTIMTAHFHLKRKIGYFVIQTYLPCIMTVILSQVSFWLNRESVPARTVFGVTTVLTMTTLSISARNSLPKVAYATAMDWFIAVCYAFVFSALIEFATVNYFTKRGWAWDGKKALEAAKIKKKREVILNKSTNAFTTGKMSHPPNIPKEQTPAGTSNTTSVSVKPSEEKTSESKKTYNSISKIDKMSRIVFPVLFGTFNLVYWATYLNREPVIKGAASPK
T1 sequence (P47870 25-512 partner limits assumed): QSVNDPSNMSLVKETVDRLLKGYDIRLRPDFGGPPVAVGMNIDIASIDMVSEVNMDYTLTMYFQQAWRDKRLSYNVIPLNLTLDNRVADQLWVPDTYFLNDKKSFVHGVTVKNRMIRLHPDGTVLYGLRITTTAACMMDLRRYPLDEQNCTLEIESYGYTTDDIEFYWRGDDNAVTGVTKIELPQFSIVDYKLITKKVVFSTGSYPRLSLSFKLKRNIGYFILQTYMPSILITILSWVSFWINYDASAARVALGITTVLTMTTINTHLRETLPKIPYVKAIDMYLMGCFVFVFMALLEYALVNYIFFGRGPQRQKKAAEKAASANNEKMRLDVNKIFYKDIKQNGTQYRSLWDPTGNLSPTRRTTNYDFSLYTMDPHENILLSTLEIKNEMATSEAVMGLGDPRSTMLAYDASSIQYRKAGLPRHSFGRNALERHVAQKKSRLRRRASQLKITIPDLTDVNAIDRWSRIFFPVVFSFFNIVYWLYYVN
T1 sequence (P18507 40-467 isoform P18507-1 limits assumed): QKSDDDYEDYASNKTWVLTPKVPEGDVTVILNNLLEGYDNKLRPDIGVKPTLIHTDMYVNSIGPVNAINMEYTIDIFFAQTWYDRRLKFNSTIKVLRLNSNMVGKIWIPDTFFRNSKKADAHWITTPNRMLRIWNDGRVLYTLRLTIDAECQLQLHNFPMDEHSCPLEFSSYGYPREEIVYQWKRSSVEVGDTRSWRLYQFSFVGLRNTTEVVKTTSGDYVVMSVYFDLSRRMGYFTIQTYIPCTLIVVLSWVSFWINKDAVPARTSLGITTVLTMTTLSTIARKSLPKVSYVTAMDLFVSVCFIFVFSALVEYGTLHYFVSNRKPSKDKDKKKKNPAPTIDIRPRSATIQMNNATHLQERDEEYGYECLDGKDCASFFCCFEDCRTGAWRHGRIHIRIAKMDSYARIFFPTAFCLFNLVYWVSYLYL
Experimental: (§1) FIG. 1. […] Efficacy profile on GABAA receptors in oocyte two-electrode voltage clamp recordings. […] Peak currents were read and normalized to a maximal effective concentration of diazepam, where after data points were fitted to the empirical Hill equation by non-linear regression, n=3−14.
(§2) The assay reported here is performed to determine the in vitro functional potency as well as efficacy of PAMs at the major brain GABAA receptors subtypes. To establish this, a full concentration response profile was determined at a GABA concentration giving rise to 5-20% of the maximal GABA-evoked response from α1β2γ2, α2β2γ2, α3β2γ2 and α5β2γ2 receptors expressed in Xenopus laevis oocytes.
(§3) Collagenase defolliculated X. laevis oocytes were obtained from Ecocyte Bioscience. For injection, the oocytes were placed in a custom designed chamber in Mod. […]
(§4) Electrophysiological responses from X. laevis oocytes were measured using the two-electrode voltage clamp technique. […] Currents were amplified by a Geneclamp 500B amplifier (Axon), low-pass filtered at 20 Hz, digitized at 200 Hz by a Digidata 1322A (Axon) and then recorded as well as analyzed by a PC (Compaq Evo) using the pClamp9 suite (Axon). […]

[3] = target: T2, α3β2γ2 GABAA receptors expressed in Xenopus laevis oocytes (Homo sapiens, UniProt P18507+P34903); experiment: Oocyte two-electrode voltage clamp electrophysiology, α3β2γ2; format: cell-based; details: GABA at EC10-20; normalized to diazepam
T2 construct: expressed in transfected cells; host or cells: Xenopus laevis oocytes injected with cRNA
T2 sequence (P34903 29-492): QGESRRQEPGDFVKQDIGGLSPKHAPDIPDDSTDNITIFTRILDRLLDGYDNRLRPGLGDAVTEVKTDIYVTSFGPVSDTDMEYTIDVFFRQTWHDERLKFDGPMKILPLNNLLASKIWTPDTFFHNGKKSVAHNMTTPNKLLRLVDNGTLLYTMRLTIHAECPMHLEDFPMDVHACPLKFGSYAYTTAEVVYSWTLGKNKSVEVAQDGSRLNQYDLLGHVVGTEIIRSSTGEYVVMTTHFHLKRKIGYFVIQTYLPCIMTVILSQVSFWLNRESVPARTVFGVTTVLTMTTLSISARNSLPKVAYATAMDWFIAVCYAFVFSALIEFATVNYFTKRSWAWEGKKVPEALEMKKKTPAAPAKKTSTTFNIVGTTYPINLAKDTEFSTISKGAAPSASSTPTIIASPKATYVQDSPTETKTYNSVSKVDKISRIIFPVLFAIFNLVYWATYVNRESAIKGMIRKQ
T2 sequence (P47870 25-512 partner limits assumed): as the sequence (P47870 25-512 partner limits assumed) above
T2 sequence (P18507 40-467 isoform P18507-1 limits assumed): as the sequence (P18507 40-467 isoform P18507-1 limits assumed) above
Experimental: as §1, §2, §3, §4

[4] = system: Chronic Constriction Injury (CCI) in Rats; experiment: Mechanical allodynia in chronic constriction injury (CCI) rats, acute and chronic dosing; details: for paw withdrawal threshold vs vehicle after chronic dosing: tested day 8
Experimental: Morphine was administered subcutaneously. […] The animals were tested after 14 days of surgery. **p<0.01,****p<0.0001 vs vehicle, Two-way ANOVA Fisher's LSD posttest, n=7−9.
Male SPRD rats (Taconic), 140-160 grams at surgery
The sciatic nerve was exposed at the mid-thigh level proximal to the sciatic trifurcation. Four chromic gut ligatures (4/0) (Ethicon, New Brunswick, N.J.) were tied loosely around the nerve, 1-2 mm apart, such that the vascular supply was not overtly compromised. The overlying muscle was closed in layers with 4/0 synthetic absorbable surgical suture.
Morphine-hydrochloride: 6 mg/kg free base weight, 1 ml/kg, subcutaneous administration. Pretreatment: 30 minutes
Morphine hydrochloride: 6 mg/kg free base weight, 1 ml/kg, subcutaneous administration once daily for 7 days.

[5] = target: T3, α1β2γ2 GABAA receptors expressed in Xenopus laevis oocytes (Homo sapiens, UniProt P14867+P18507); experiment: Oocyte two-electrode voltage clamp electrophysiology, α1β2γ2; format: cell-based; details: GABA at EC10-20, normalized to diazepam
T3 construct: expressed in transfected cells; host or cells: Xenopus laevis oocytes injected with cRNA
T3 sequence (P14867 28-456): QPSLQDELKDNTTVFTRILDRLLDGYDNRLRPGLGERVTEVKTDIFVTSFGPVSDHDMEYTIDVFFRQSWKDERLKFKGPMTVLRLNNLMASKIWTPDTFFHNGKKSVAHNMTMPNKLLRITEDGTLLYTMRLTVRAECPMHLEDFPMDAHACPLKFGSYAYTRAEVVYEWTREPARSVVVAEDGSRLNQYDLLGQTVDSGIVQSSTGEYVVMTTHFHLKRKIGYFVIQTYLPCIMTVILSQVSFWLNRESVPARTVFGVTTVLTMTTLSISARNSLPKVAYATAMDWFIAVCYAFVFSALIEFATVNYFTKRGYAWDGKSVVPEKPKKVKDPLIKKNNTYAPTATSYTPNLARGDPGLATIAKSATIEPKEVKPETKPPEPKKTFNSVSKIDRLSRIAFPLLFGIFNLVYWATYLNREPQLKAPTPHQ
T3 sequence (P47870 25-512 partner limits assumed): as the sequence (P47870 25-512 partner limits assumed) above
T3 sequence (P18507 40-467 isoform P18507-1 limits assumed): as the sequence (P18507 40-467 isoform P18507-1 limits assumed) above
Experimental: as §1, §2
Collagenase defolliculated X. laevis oocytes were obtained from Ecocyte Bioscience. For injection, the oocytes were placed in a custom designed chamber in Mod. Barth's solution (90 mM NaCl, 1 mM KCl, 0.66 mM NaNO3, 2.4 mM NaHCO3, 0.74 mM CaCl2, 0.82 mM MgCl2, 100 μg/ml Gentamicin and 10 mM HEPES adjusted to pH 7.55) and injected with 25-50 nl of cRNA mixture using a Pico Pump (WPI). The cRNA mixture contain GABAAR subunits αx, β2, and γ2s in the ratio of 3:1:3 and in a total concentration of 0.5 μg/μl. Following injection, oocytes were maintained at 18° C. in Mod.
Electrophysiological responses from X. laevis oocytes were measured using the two-electrode voltage clamp technique. Single oocytes were placed in custom designed recording chambers that were continuously perfused with ≥2 ml/min OR2 (90 mM NaCl, 2.5 mM KCl, 2.5 mM CaCl2, 1 mM MgCl2 and 5 mM HEPES pH 7.4). […] The oocyte was impaled using manual micro manipulators and allowed to equilibrate at a holding potential of −50 mV to −80 mV for at least 1 min to ensure a maximal leak current of 100 nA before the experiment was initiated. […] Currents were amplified by a Geneclamp 500B amplifier (Axon), low-pass filtered at 20 Hz, digitized at 200 Hz by a Digidata 1322A (Axon) and then recorded as well as analyzed by a PC (Compaq Evo) using the pClamp9 suite (Axon). […]

[6] = system: Compound 48/80 induced scratching in male CD-1 mice; experiment: Compound 48/80 induced scratching in male CD-1 mice
Experimental: Male CD-1 mice (22-30 g) (InterVivo Solutions, Canada)
All treatments were dosed at a dosing volume of 10 ml/kg.
Visual observation of bouts of scratching over 30 minutes. Visual assessments were performed blinded to treatment.

[7] = target: T4, recombinant GABA α3β2γ2 receptors (HEK-293 cell membranes) (Homo sapiens, UniProt P18507+P34903); experiment: In vitro inhibition of 3H-flumazenil binding; details: 3H-flumazenil 1 nM, 40 min at 2° C., HEK-293 α3β2γ2 membranes
T4 construct: expressed in transfected cells; membranes
T4 sequence (P34903 29-492): as the sequence (P34903 29-492) above
T4 sequence (P47870 25-512 partner limits assumed): as the sequence (P47870 25-512 partner limits assumed) above
T4 sequence (P18507 40-475): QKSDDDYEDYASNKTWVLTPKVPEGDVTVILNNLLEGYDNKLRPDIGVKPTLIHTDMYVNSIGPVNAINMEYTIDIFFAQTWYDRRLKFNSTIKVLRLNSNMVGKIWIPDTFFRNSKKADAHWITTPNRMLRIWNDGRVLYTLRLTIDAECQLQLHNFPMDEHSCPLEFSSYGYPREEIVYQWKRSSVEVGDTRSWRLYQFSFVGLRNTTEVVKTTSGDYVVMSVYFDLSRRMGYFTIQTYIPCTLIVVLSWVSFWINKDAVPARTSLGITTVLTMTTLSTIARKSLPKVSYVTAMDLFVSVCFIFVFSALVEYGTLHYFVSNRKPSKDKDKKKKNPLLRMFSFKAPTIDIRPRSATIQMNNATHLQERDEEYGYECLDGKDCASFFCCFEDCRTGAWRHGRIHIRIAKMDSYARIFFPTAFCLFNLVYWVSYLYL
From the text: Specific binding is total binding minus non-specific binding.

[8] = target: T5, α2β2γ2 GABAA receptors expressed in Xenopus laevis oocytes (Homo sapiens, UniProt P18507+P47869); experiment: Oocyte two-electrode voltage clamp electrophysiology, α2β2γ2; format: cell-based; details: GABA at EC10-20; normalized to maximal effective concentration of diazepam
T5 construct: expressed in transfected cells; host or cells: Xenopus laevis oocytes injected with cRNA
T5 sequence (P47869 29-451): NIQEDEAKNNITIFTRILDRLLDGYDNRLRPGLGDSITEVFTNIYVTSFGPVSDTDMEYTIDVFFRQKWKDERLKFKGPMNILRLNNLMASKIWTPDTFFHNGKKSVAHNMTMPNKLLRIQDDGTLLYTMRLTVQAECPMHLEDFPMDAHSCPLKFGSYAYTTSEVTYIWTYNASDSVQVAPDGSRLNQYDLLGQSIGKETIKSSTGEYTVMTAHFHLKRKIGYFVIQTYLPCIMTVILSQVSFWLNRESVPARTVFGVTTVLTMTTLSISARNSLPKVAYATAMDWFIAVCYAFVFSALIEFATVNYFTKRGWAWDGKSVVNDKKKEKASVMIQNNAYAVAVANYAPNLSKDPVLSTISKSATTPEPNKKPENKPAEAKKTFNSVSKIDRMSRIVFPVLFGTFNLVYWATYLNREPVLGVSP
T5 sequence (P47870 25-512 partner limits assumed): as the sequence (P47870 25-512 partner limits assumed) above
T5 sequence (P18507 40-467 isoform P18507-1 limits assumed): as the sequence (P18507 40-467 isoform P18507-1 limits assumed) above
Experimental: as §1, §2, §3, §4

[9] = system: male Sprague Dawley (SD) rats; experiment: Rotarod performance in male SD rats; details: 10 mg/kg per oral, 60 minutes before test
Experimental: Rats were trained on the rota rod for two days at 4-40 rpm for 5 min before evaluating the drug effects on the 3rd day.
Male SD rats (150-180 grams, NTac:SD, Taconic, Denmark)
The rats were trained on an accelerating rotarod (4-40 rpm, PanLab), one trial of 5 minutes per day, for two days prior to drug testing. Only rats that were able to stay on the rotating rod for more than 90 seconds after two days of training were included in the study. At the day of testing, the rats were placed on the rotating rod, accelerating with a speed of 4-40 rpm/5 minutes with the minimum time possible to spend on the rod designated as 0 s, and the maximum time spent on the rod set at 300 s.

COc1ncc(-c2cccc(-n3cnc4cc(C(C)(C)O)cnc43)c2)c(OC)n1 [Compound 1, 2-(3-(3-(2,4-dimethoxypyrimidin-5-yl)phenyl)-3H-imidazo[4,5-b]pyridin-6-yl)propan-2-ol]
exploratory locomotor activity [1]: did not exert any effect; also recorded: did not affect exploratory locomotor activity
activation of GABAA-α5 containing receptors [2]: less than 10%
potentiation of GABA-mediated currents in GABAA-α3 containing receptors [3]: preferential potentiation
paw withdrawal threshold vs vehicle after chronic dosing ([4]; 1, 3, 10 mg/kg per oral once daily for 7 days): significant enhancement of the paw withdrawal threshold was maintained
paw withdrawal threshold vs vehicle after chronic dosing ([4]; 1, 3, 10 mg/kg per oral once daily for 7 days, listed as compound 1): significant analgesic effect of all 3 doses were maintained
paw withdrawal threshold vs vehicle ([4]; acute, 1 mg/kg per oral, 2 hrs and 3 hrs post treatment): significantly enhanced paw withdrawal threshold
paw withdrawal threshold vs vehicle ([4]; acute, 3 mg/kg per oral, 2 hrs and 3 hrs post treatment): significantly enhanced paw withdrawal threshold
paw withdrawal threshold vs vehicle ([4]; acute, 10 mg/kg per oral): just failed to reach statistical significance
minimal effective dose, reversal of mechanical allodynia ([4]; acute, oral administration, CCI rats): less than or equal to 1 mg/kg
modulation of GABA-mediated currents, α1β2γ2 receptor [5]: no activation
modulation of GABA-mediated currents, α1β2γ2 receptor ([5]; listed as compound 1): close to zero
bouts of scratching over 30 minutes vs vehicle ([6]; 3, 10, 30 mg/kg oral gavage, 30 min prior, significant at 10 and 30 mg/kg): significantly relieved itching; also recorded: dose dependently reduced
minimal effective dose, bouts of scratching ([6]; oral gavage 30 min before compound 48/80): 10 mg/kg
IC50 [7]: 38 nM
Ki [7]: 15 nM
CI (IV 0.5 mg/kg, rat): 6.33 mL/min/kg
concentration after 8 h (dose 1 mg/kg (Table 3)): *AUC calculated 0-8 h, concentration after 8 h was 149 ng/ml.
activation of GABAA-α2 containing receptors [8]: less than 10%

COc1ncc(-c2cccc(-n3cnc4cc(C(C)(C)O)ccc43)c2)c(OC)n1 [Compound 9, reference compound]
modulation of GABA-mediated currents, α1β2γ2 receptor [5]: clearly negative

CN1C(=O)CN=C(c2ccccc2)c2cc(Cl)ccc21 [Diazepam]
latency to fall off accelerating rotarod [9]: significantly shortened the time to fall off the rod; also recorded: significantly shortened the latency to fall off

CN1CC[C@]23c4c5ccc(O)c4O[C@H]2[C@@H](O)C=C[C@H]3[C@H]1C5.Cl [Morphine hydrochloride, reference compound]
paw withdrawal threshold vs vehicle after chronic dosing ([4]; 6 mg/kg subcutaneous once daily for 7 days, hydrochloride): completely abolished the allodynic effect; also recorded: completely lost
paw withdrawal threshold vs vehicle ([4]; acute, 6 mg/kg subcutaneous): significantly enhanced paw withdrawal threshold
